# Experiments:
# [1] = system: LNCaP95 cells; assay: Cell proliferation BrdU immunoassay; assay type: cell-based, human; settings: R1881 0.1 nM, 48 h, serum-free, Compound A 25 uM, enzalutamide 10 uM, BEZ-235 15 nM, everolimus 10 nM
# [2] = target: T1, AR (Homo sapiens, UniProt P10275, T878A); assay: PSA-, ARR3-, PB-luciferase AR reporter assay in LNCaP95 cells; settings: LNCaP95 cells treated with androgen, BEZ-235 15 nM
# T1 sequence (P10275 1-920 T878A): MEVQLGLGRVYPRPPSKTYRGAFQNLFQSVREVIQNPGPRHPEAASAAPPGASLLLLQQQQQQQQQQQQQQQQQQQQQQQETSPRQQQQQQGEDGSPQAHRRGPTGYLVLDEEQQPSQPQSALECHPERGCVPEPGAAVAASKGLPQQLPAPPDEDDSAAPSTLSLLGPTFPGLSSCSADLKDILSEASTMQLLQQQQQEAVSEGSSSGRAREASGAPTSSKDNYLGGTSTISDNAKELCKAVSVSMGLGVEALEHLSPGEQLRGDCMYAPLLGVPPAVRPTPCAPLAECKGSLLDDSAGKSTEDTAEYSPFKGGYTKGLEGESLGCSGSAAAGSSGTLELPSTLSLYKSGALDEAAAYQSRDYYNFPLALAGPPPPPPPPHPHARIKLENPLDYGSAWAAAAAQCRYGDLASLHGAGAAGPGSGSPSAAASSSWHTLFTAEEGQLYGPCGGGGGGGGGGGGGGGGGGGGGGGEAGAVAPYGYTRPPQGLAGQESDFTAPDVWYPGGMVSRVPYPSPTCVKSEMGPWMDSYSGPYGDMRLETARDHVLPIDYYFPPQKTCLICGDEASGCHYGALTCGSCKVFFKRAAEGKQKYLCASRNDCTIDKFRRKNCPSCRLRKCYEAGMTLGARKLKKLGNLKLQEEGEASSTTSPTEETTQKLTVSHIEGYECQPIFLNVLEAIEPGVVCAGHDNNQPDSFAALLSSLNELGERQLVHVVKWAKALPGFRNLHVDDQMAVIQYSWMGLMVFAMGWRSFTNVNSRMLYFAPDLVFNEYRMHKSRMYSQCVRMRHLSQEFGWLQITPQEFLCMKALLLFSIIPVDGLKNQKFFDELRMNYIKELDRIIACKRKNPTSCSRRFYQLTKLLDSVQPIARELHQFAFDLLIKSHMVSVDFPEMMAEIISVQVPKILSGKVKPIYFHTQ
# [3] = system: mTOR and AR pathways in LNCaP95 cells; assay: Western blot analysis of mTOR and AR pathways in LNCaP95 cells; assay type: cell-based, human; settings: LNCaP95 cells
# Protocol: Cells were harvested and whole-cell lysate (10 to 15 ug) was subjected to SDS-PAGE. Antibodies used were: AR (1:1000; Santa Cruz), AR-V7 (1:400; Precision), p110α (1:500; BD Bioscience), p110β (1:1000; abcam), […] (1:1000; abcam), p110δ (1:1000; abcam), UBE2C (Boston Biochem; 1:1000), PTEN (1:1000), pS6 (1:2000), pAktThr308 (1:1000), pAktSer473 (1:2000), p4EBP1 (1:1000), total-Akt (1:1000), total-S6 (1:1000), total-4EBP1 (1:1000), pERK/MAPK (1:1000), total-ERK/MAPK (1:1000) from Cell Signaling technology (Danvers, Mass.). β-actin (1:10,000, Abcam) was used as a loading control.
# Protein levels of PSA were undetectable in LNCaP95 cells.
# [4] = system: LNCaP95 cells; assay: Titration of BEZ-235 for cytotoxicity in LNCaP95 cells; assay type: cell-based, human
# [5] = system: genes regulated by FL-AR and AR-V7 in LNCaP95 cells; assay: Gene expression analysis (quantitative real-time RT-PCR) in LNCaP95 cells; assay type: cell-based, human
# [6] = system: LNCaP95 xenografts; assay: Immunohistochemistry of harvested xenografts; assay type: in vivo, mice; settings: immunohistochemistry
# [7] = target: T2, AR-V7 (Homo sapiens, UniProt P10275); assay: PB-luciferase assay in Cos-1 cells transfected with AR-V7; assay type: cell-based; settings: 24 h, serum-free
# T2 construct: expressed in transfected cells; host or cells: Cos-1
# T2 sequence (P10275 1-644 isoform P10275-3): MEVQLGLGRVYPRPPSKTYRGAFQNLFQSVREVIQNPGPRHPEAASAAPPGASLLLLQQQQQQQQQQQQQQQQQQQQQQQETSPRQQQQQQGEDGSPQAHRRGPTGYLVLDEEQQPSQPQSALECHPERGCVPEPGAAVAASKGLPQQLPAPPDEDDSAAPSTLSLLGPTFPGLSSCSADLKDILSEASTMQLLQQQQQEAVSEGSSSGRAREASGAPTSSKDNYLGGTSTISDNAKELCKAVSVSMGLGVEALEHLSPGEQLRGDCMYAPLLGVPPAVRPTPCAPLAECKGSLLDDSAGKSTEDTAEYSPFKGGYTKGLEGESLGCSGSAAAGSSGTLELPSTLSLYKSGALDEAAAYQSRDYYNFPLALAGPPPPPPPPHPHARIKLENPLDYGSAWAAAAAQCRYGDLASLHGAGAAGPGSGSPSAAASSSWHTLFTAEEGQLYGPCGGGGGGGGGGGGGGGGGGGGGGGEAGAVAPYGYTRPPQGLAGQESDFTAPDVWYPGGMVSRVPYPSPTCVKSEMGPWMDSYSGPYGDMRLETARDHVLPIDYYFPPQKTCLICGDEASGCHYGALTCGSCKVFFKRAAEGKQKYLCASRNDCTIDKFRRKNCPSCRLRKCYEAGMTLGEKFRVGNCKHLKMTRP
# Source text: Ectopic protein levels of AR-V7 and AR-V567 in Cos-1 cells are shown relative to endogenous levels of FL-AR in LNCaP cells.
# [8] = absence of androgen, BEZ-235 15 nM
compound,measurement,setting,value
"Cn1c(=O)n(-c2ccc(C(C)(C)C#N)cc2)c2c3cc(-c4cnc5ccccc5c4)ccc3ncc21 [BEZ-235, 2-methyl-2-[4-(3-methyl-2-oxo-8-quinolin-3-ylimidazo[4,5-c]quinolin-1-yl)phenyl]propanenitrile]",proliferation (BrdU incorporation),[1],inhibited
same,"PSA-, ARR3- and PB-luciferase activities",[2],significantly increased
same,pAkt,[3]; 500 nM BEZ-235,inhibited
same,levels of UBE2C,[3]; 48 h,decreased
same,pAkt,"[3]; BEZ-235 15 nM, everolimus",did not impact
same,levels of AR-V7,[3]; [8],increased
same,levels of FL-AR,[3]; [8],increased
same,protein levels of FL-AR,[3]; titration experiments,increased
same,pS6 ribosomal protein,"[3]; titration, BEZ-235 15 nM, everolimus 10 nM",inhibited
same,cytotoxicity,[4]; 500 nM BEZ-235,enormous cytotoxicity
same,non-toxic concentration,[4]; titration experiments,15 nM
same,TMPRSS2 or FKBP5 transcripts in response to BEZ-235,[5],No similar effects
same,levels of FL-AR transcript,[5],did not increase
same,increase in transcript levels of AR-V7,[5]; absence of androgen,greater than 2 fold
same,levels of PSA transcript,[5]; absence of androgen,induced
same,"transcript levels of AR-V7 target genes (UBE2C, CDC20, Akt1)",[5]; absence of androgen,consistently reduced
same,androgen-induced levels of PSA transcripts,[5]; compared to androgen alone,significantly increased
same,UBE2C levels,"[5]; monotherapy, regardless of androgen",attenuated
same,UBE2C staining,[6],reduced
same,pS6 staining,[6],reduced
same,transcriptional activity of AR-V7,[7],no effect
